How the values were obtained:
[1] = tested on: bEnd.3 cells; assay: Cellular uptake by laser scanning confocal microscopy (LSCM); settings: FITC-labeled; confluent bEnd.3 cells; 1 h treatment; formalin-fixed; LSCM 488 laser; qualitative, versus untreated control cells
Experimental: The bEnd.3 cells were treated at confluence with FITC-labeled products dissolved in DMEM and incubated for 1 h (the appropriate incubation time for dendrons with this type of cell line). The cells were then fixed with 3.7% (v/v) formalin, and analyzed by LSCM (Leica TCS SP5, UK), using a 488-visible laser source.

[2] = tested on: bEnd.3 cells; assay: LDH release cytotoxicity assay; settings: confluent bEnd.3 cells; concentrations up to 400 μM; 24 and 48 h; absorbance 492 nm; relative to complete lysis control (100% lysis); mean of n = 6
Experimental: The bEnd.3 cells were cultured, according to ATCC-product sheet instruction, in DMEM high glucose medium with L-pyruvate, containing 10 % (v/v) fetal bovine serum and 1% (v/v) of 500 U/ml Penicillin/Streptomycin (Gibco, Germany). Cells were seeded at a density of 5 × 10^4 cells per cm^2 in 24-well plates then incubated at 37°C and 5% CO2 and the culture media was replaced every 3 days.
Experiments were performed when cells reached confluence. A range of concentrations (25, 50, 100, 150, 200, 300, and 400 μM) of each AMT-competent G0-, G1-dendron, and RMT-competent AEP-dendron were used in each experiment.
Lactate dehydrogenase (LDH) was measured using Promega CytoTox96® non-radioactive cytotoxicity assay kit (UK) after 24 and 48 h incubation. Absorbance was read spectrophotometrically at 492 nm and converted to a percentage of the total LDH released from the positive control (cells subjected to complete lysis) for 6 replicates.

[3] = tested on: bEnd.3 cells; assay: Cellular uptake by flow cytometry; settings: FITC-labeled carrier in DMEM; confluent bEnd.3 cells; 1 h incubation; flow cytometry FL1-H channel; in comparison to negative control (untreated cells)
Experimental: The bEnd.3 cells were cultured and treated at confluence with 100 μL FITC-labeled products dissolved in DMEM for 1 h. The cells were washed with phosphate buffer solution twice and trypsinised and then harvested to be analyzed using BD C6 sampler flow cytometer (BD Accuri C6, Bioscience, UK). Samples of cells without treatment were also included as a control, and the analysis was carried out through the FL1-H channel for FITC detection.

Molecule | cellular uptake (green fluorescence inside the cells) [1] | cell membrane lysis (LDH release) as % of positive control [2] [%] | cellular uptake [3] [%]
O=C1OC2(c3ccc(O)cc3Oc3cc(O)ccc32)c2ccc(N=C=S)cc21 [FITC, fluorescein-5-isothiocyanate, reference compound] | negative results |  | 
NCCCC[C@H](N)C(=O)N[C@@H](Cc1ccccc1)C(N)=O [G0-dendron] | successful cellular uptake | < 10 | 38.7
H-KLRKLRKRLLR-NH2 (C-terminus assumed) [AEP-dendron] |  | < 10 | 90.7
